In the kinase profiling compilation of Christmann-Franck et al. (2016):

Key:
Test in all cases: radiometric filter-binding kinase assay, Kinase HotSpot
Conditions in all cases: compound 0.5 µM; ATP 10 µM
[1] = system: MKNK1 (human), Q9BUB5 [T385D; 165-205 del]
[2] = system: MAP2K6 (human), P52564 [S207E/T211E]
MARK4 (human) = MARK4 (human) (UniProt Q96L34)
CAMK1D (human) = CAMK1D (human) (UniProt Q8IU85)
STK16 (human) = STK16 (human) (UniProt O75716)
[3] = system: PRKCQ (human), Q04759 [P330L]
FER (human) = FER (human) (UniProt P16591)
STK17A (human) = STK17A (human) (UniProt Q9UEE5)
BRSK2 (human) = BRSK2 (human) (UniProt Q8IWQ3)
BMX (human) = BMX (human) (UniProt P51813)
PKN1 (human) = PKN1 (human) (UniProt Q16512)
NEK2 (human) = NEK2 (human) (UniProt P51955)
BTK (human) = BTK (human) (UniProt Q06187)
INSR (human) = INSR (human) (UniProt P06213)
CDK1 CCNB1 (human) = CDK1 CCNB1 (human) (UniProt P06493+P14635)
NEK1 (human) = NEK1 (human) (UniProt Q96PY6)
MAPK11 (human) = MAPK11 (human) (UniProt Q15759)
PKN2 (human) = PKN2 (human) (UniProt Q16513)
CDK4 CCND3 (human) = CDK4 CCND3 (human) (UniProt P30281+P11802)
CDK2 CCNE1 (human) = CDK2 CCNE1 (human) (UniProt P24941+P24864)
CAMK1 (human) = CAMK1 (human) (UniProt Q14012)
FGR (human) = FGR (human) (UniProt P09769)
MAPK14 (human) = MAPK14 (human) (UniProt Q16539)
KIT (human) = KIT (human) (UniProt P10721)
LRRK2 (human) = LRRK2 (human) (UniProt Q5S007)
SRPK2 (human) = SRPK2 (human) (UniProt P78362)
PTK6 (human) = PTK6 (human) (UniProt Q13882)
MAP2K2 (human) = MAP2K2 (human) (UniProt P36507)
CSNK2A1 (human) = CSNK2A1 (human) (UniProt P68400)
ZAP70 (human) = ZAP70 (human) (UniProt P43403)
MAP3K2 (human) = MAP3K2 (human) (UniProt Q9Y2U5)
STK10 (human) = STK10 (human) (UniProt O94804)
SRC (human) = SRC (human) (UniProt P12931)
TBK1 (human) = TBK1 (human) (UniProt Q9UHD2)
CDK9 CCNT1 (human) = CDK9 CCNT1 (human) (UniProt P50750+O60563)
IRAK4 (human) = IRAK4 (human) (UniProt Q9NWZ3)
CAMK1G (human) = CAMK1G (human) (UniProt Q96NX5)
MAPK10 (human) = MAPK10 (human) (UniProt P53779)
PAK2 (human) = PAK2 (human) (UniProt Q13177)
STK11 (human) = STK11 (human) (UniProt Q15831)
HIPK3 (human) = HIPK3 (human) (UniProt Q9H422)

Chain of MAP3K2 (human) (Q9Y2U5 whole entry, looked up): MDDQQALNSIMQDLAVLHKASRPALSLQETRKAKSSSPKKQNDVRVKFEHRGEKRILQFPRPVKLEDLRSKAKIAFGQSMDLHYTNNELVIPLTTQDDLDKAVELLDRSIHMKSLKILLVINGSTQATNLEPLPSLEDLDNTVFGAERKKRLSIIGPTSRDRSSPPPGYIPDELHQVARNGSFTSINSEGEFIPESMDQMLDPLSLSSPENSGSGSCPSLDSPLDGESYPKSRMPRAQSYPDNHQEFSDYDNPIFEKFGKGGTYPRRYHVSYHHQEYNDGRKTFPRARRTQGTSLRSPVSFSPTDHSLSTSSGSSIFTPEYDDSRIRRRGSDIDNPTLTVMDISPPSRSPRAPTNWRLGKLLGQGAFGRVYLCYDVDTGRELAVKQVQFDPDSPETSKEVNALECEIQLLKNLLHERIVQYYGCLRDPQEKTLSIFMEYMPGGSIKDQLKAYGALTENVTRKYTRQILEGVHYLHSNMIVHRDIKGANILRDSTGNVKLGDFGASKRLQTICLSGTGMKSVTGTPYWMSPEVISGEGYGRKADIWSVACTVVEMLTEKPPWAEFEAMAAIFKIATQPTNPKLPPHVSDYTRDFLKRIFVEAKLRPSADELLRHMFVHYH
Chain of STK17A (human) (Q9UEE5 whole entry, looked up): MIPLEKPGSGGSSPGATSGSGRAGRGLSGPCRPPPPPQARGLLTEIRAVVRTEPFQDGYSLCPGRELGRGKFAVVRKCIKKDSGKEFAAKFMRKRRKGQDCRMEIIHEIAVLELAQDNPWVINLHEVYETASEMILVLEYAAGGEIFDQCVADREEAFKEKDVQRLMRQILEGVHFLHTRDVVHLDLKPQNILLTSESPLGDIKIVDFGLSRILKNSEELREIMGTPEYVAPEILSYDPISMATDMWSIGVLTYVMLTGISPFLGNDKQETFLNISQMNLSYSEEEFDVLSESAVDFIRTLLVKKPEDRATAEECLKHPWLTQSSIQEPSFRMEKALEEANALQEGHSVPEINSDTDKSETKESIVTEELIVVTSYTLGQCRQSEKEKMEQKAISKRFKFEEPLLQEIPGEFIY
Chain of MAP2K6 (human), P52564 [S207E/T211E] (P52564 whole entry S207E/T211E, looked up): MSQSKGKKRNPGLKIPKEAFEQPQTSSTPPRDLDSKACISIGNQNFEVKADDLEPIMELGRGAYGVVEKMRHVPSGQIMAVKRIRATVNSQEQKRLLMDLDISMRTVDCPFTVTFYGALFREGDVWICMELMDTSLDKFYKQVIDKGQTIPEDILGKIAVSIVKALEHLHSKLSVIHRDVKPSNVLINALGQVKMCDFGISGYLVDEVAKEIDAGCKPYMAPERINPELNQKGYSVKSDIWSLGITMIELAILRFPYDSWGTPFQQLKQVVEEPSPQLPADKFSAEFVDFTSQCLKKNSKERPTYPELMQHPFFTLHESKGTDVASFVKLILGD
Chain of NEK2 (human) (P51955 whole entry, looked up): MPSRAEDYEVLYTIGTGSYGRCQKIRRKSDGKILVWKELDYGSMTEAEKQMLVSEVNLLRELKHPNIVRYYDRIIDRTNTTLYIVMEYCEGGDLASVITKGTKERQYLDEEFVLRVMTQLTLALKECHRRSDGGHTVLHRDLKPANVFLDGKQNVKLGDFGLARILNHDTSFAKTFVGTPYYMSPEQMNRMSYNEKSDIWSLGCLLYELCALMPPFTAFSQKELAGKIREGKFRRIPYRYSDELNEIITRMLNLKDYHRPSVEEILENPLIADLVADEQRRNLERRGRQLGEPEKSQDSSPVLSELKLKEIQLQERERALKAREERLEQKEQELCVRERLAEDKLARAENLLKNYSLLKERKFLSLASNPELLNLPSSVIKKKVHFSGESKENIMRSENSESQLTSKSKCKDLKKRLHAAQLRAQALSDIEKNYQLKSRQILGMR
Chain of CAMK1D (human) (Q8IU85 whole entry, looked up): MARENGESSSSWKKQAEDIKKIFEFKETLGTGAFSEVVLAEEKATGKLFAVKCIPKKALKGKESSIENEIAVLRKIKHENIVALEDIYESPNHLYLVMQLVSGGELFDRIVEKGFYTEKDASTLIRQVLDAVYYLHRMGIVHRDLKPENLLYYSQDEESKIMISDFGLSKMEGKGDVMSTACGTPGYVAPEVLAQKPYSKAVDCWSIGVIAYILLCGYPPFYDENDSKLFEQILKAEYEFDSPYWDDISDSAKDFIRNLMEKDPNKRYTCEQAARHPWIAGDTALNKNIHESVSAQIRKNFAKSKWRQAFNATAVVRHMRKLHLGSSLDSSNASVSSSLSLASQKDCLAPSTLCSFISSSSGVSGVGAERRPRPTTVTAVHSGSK
Chain of STK11 (human) (Q15831 whole entry, looked up): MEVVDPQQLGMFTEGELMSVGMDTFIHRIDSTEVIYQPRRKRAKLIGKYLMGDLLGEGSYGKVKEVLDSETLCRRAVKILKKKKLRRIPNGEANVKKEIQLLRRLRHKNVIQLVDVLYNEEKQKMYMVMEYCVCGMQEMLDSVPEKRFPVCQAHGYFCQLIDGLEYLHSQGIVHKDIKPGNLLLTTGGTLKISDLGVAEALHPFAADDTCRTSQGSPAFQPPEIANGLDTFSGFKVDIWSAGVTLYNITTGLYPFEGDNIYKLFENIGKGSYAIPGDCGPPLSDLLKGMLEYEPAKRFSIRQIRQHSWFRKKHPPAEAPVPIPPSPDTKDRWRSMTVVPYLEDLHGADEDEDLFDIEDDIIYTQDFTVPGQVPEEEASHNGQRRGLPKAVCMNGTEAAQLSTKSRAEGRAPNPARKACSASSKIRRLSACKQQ
Chain of CDK2 CCNE1 (human) (P24864 whole entry, looked up, other chains not shown): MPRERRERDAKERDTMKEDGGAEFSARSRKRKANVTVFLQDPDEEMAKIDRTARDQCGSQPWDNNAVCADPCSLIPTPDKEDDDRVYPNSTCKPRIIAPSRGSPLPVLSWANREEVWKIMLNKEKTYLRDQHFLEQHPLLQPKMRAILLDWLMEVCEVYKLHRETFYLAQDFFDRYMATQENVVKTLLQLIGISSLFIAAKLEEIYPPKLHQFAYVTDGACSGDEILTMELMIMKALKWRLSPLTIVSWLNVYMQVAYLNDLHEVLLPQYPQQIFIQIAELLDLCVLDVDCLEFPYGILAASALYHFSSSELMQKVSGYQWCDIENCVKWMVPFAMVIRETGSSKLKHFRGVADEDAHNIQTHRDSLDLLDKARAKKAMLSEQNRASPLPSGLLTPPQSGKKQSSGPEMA
Chain of SRPK2 (human) (P78362 whole entry, looked up): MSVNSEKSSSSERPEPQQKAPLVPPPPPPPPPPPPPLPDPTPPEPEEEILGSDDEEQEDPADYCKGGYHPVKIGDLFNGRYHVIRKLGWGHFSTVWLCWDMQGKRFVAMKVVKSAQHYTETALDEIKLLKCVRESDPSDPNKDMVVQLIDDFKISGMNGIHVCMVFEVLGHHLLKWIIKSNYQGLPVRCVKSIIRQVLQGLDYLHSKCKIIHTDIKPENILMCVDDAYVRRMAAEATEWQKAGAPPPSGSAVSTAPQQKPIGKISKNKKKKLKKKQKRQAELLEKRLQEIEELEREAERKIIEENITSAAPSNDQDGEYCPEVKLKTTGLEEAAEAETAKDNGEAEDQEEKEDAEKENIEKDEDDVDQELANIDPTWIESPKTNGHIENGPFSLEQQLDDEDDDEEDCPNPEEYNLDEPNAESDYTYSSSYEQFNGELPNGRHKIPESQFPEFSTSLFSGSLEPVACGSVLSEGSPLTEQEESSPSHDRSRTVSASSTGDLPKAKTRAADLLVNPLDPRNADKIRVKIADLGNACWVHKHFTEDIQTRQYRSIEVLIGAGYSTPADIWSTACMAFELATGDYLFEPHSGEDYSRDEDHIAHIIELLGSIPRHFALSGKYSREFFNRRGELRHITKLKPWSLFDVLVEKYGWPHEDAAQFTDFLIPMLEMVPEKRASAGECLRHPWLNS
Chain of CSNK2A1 (human) (P68400 whole entry, looked up): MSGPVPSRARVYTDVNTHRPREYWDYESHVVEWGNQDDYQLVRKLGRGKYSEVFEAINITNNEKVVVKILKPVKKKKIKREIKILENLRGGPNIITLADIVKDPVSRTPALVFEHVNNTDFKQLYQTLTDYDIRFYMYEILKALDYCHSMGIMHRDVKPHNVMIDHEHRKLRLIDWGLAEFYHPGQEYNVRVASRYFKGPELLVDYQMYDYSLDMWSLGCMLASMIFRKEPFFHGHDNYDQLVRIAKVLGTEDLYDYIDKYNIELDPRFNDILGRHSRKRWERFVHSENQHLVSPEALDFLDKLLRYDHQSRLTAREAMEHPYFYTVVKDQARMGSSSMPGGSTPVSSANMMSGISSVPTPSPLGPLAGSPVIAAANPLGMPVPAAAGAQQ
Chain of FER (human) (P16591 whole entry, looked up): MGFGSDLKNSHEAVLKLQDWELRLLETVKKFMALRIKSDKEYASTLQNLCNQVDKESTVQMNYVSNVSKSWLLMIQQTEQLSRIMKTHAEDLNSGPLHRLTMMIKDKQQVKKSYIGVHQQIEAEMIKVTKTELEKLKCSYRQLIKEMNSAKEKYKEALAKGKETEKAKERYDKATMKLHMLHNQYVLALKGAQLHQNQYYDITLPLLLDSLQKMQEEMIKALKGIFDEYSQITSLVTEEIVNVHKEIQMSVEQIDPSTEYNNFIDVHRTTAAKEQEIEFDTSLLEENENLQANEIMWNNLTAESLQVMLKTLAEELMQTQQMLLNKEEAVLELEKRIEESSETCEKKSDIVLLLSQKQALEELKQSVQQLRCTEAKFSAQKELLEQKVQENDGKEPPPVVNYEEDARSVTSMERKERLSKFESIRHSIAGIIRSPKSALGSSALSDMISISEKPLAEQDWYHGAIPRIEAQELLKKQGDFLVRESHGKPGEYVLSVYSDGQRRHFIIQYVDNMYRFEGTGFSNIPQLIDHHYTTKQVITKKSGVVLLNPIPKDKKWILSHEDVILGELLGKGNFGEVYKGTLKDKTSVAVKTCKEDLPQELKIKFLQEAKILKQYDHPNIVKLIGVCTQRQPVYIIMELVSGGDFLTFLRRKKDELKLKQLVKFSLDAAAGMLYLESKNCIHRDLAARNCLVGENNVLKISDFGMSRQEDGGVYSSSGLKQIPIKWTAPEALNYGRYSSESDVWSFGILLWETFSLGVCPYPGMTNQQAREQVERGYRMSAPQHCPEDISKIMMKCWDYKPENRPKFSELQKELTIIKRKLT

CS(=O)(=O)CCNCc1ccc(-c2ccc3ncnc(Nc4ccc(OCc5cccc(F)c5)c(Cl)c4)c3c2)o1
residual activity [1]: 94.5%
residual activity [2]: 95.4%
residual activity (MARK4 (human)): 104%
residual activity (CAMK1D (human)): 104%
residual activity (STK16 (human)): 97.1%
residual activity [3]: 72.4%
residual activity (FER (human)): 94.6%
residual activity (STK17A (human)): 89.7%
residual activity (BRSK2 (human)): 106%
residual activity (BMX (human)): 105%
residual activity (PKN1 (human)): 106%
residual activity (NEK2 (human)): 118%
residual activity (BTK (human)): 103%
residual activity (INSR (human)): 105%
residual activity (CDK1 CCNB1 (human)): 100%
residual activity (NEK1 (human)): 71.8%
residual activity (MAPK11 (human)): 101%
residual activity (PKN2 (human)): 92%
residual activity (CDK4 CCND3 (human)): 104%
residual activity (CDK2 CCNE1 (human)): 98.8%
residual activity (CAMK1 (human)): 102%
residual activity (FGR (human)): 84.8%
residual activity (MAPK14 (human)): 101%
residual activity (KIT (human)): 98.4%
residual activity (LRRK2 (human)): 76.9%
residual activity (SRPK2 (human)): 88%
residual activity (PTK6 (human)): 103%
residual activity (MAP2K2 (human)): 106%
residual activity (CSNK2A1 (human)): 121%
residual activity (ZAP70 (human)): 92.5%
residual activity (MAP3K2 (human)): 123%
residual activity (STK10 (human)): 94.8%
residual activity (SRC (human)): 102%
residual activity (TBK1 (human)): 103%
residual activity (CDK9 CCNT1 (human)): 85.2%
residual activity (IRAK4 (human)): 91.5%
residual activity (CAMK1G (human)): 102%
residual activity (MAPK10 (human)): 100%
residual activity (PAK2 (human)): 102%
residual activity (STK11 (human)): 106%
residual activity (HIPK3 (human)): 99.1%

c1ccc2c(-c3ccncc3)c[nH]c2c1
residual activity [1]: 75.5%
residual activity [2]: 106%
residual activity (MARK4 (human)): 94.7%
residual activity (CAMK1D (human)): 107%
residual activity (STK16 (human)): 110%
residual activity [3]: 125%
residual activity (FER (human)): 91.6%
residual activity (STK17A (human)): 93%
residual activity (BRSK2 (human)): 98.6%
residual activity (BMX (human)): 95.8%
residual activity (PKN1 (human)): 66.4%
residual activity (NEK2 (human)): 106%
residual activity (BTK (human)): 104%
residual activity (INSR (human)): 90.5%
residual activity (CDK1 CCNB1 (human)): 96%
residual activity (NEK1 (human)): 101%
residual activity (MAPK11 (human)): 112%
residual activity (PKN2 (human)): 80.8%
residual activity (CDK4 CCND3 (human)): 102%
residual activity (CDK2 CCNE1 (human)): 91.7%
residual activity (CAMK1 (human)): 108%
residual activity (FGR (human)): 94.5%
residual activity (MAPK14 (human)): 104%
residual activity (KIT (human)): 93.2%
residual activity (LRRK2 (human)): 92.8%
residual activity (SRPK2 (human)): 103%
residual activity (PTK6 (human)): 85.5%
residual activity (MAP2K2 (human)): 103%
residual activity (CSNK2A1 (human)): 95%
residual activity (ZAP70 (human)): 105%
residual activity (MAP3K2 (human)): 94.9%
residual activity (STK10 (human)): 93.7%
residual activity (SRC (human)): 100%
residual activity (TBK1 (human)): 93.4%
residual activity (CDK9 CCNT1 (human)): 75.2%
residual activity (IRAK4 (human)): 109%
residual activity (CAMK1G (human)): 99%
residual activity (MAPK10 (human)): 102%
residual activity (PAK2 (human)): 84%
residual activity (STK11 (human)): 90.7%
residual activity (HIPK3 (human)): 107%

Ic1cccc(CSc2nnc(-c3ccncc3)o2)c1
residual activity [1]: 109%
residual activity [2]: 97%
residual activity (MARK4 (human)): 86.8%
residual activity (CAMK1D (human)): 101%
residual activity (STK16 (human)): 110%
residual activity [3]: 120%
residual activity (FER (human)): 101%
residual activity (STK17A (human)): 95.8%
residual activity (BRSK2 (human)): 99.3%
residual activity (BMX (human)): 86.6%
residual activity (PKN1 (human)): 98.6%
residual activity (NEK2 (human)): 100%
residual activity (BTK (human)): 95.6%
residual activity (INSR (human)): 83.5%
residual activity (CDK1 CCNB1 (human)): 92%
residual activity (NEK1 (human)): 95.5%
residual activity (MAPK11 (human)): 96.9%
residual activity (PKN2 (human)): 100%
residual activity (CDK4 CCND3 (human)): 97.5%
residual activity (CDK2 CCNE1 (human)): 102%
residual activity (CAMK1 (human)): 102%
residual activity (FGR (human)): 90.9%
residual activity (MAPK14 (human)): 99.3%
residual activity (KIT (human)): 99.8%
residual activity (LRRK2 (human)): 91.9%
residual activity (SRPK2 (human)): 97.4%
residual activity (PTK6 (human)): 104%
residual activity (MAP2K2 (human)): 102%
residual activity (CSNK2A1 (human)): 97.3%
residual activity (ZAP70 (human)): 107%
residual activity (MAP3K2 (human)): 106%
residual activity (STK10 (human)): 93.8%
residual activity (SRC (human)): 101%
residual activity (TBK1 (human)): 103%
residual activity (CDK9 CCNT1 (human)): 109%
residual activity (IRAK4 (human)): 105%
residual activity (CAMK1G (human)): 95.9%
residual activity (MAPK10 (human)): 95.7%
residual activity (PAK2 (human)): 97.6%
residual activity (STK11 (human)): 103%
residual activity (HIPK3 (human)): 99.1%

COc1ccc(S(=O)(=O)N(CCO)c2ccccc2CN(C)C/C=C/c2ccc(Cl)cc2)cc1
residual activity [1]: 103%
residual activity [2]: 108%
residual activity (MARK4 (human)): 102%
residual activity (CAMK1D (human)): 103%
residual activity (STK16 (human)): 102%
residual activity [3]: 110%
residual activity (FER (human)): 97.1%
residual activity (STK17A (human)): 102%
residual activity (BRSK2 (human)): 103%
residual activity (BMX (human)): 101%
residual activity (PKN1 (human)): 110%
residual activity (NEK2 (human)): 86.6%
residual activity (BTK (human)): 96.4%
residual activity (INSR (human)): 103%
residual activity (CDK1 CCNB1 (human)): 105%
residual activity (NEK1 (human)): 104%
residual activity (MAPK11 (human)): 103%
residual activity (PKN2 (human)): 101%
residual activity (CDK4 CCND3 (human)): 94.1%
residual activity (CDK2 CCNE1 (human)): 94%
residual activity (CAMK1 (human)): 105%
residual activity (FGR (human)): 99.8%
residual activity (MAPK14 (human)): 95.1%
residual activity (KIT (human)): 103%
residual activity (LRRK2 (human)): 101%
residual activity (SRPK2 (human)): 98.5%
residual activity (PTK6 (human)): 89.3%
residual activity (MAP2K2 (human)): 100%
residual activity (CSNK2A1 (human)): 99.5%
residual activity (ZAP70 (human)): 84.7%
residual activity (MAP3K2 (human)): 95.3%
residual activity (STK10 (human)): 99.4%
residual activity (SRC (human)): 92.7%
residual activity (TBK1 (human)): 97.1%
residual activity (CDK9 CCNT1 (human)): 103%
residual activity (IRAK4 (human)): 97.2%
residual activity (CAMK1G (human)): 101%
residual activity (MAPK10 (human)): 95.5%
residual activity (PAK2 (human)): 101%
residual activity (STK11 (human)): 97.7%
residual activity (HIPK3 (human)): 104%

COc1ccc(Cl)cc1NC(=O)Nc1cc(C)nc2ccccc12
residual activity [1]: 101%
residual activity [2]: 89.9%
residual activity (MARK4 (human)): 79.7%
residual activity (CAMK1D (human)): 99.9%
residual activity (STK16 (human)): 105%
residual activity [3]: 96.7%
residual activity (FER (human)): 92.4%
residual activity (STK17A (human)): 98.1%
residual activity (BRSK2 (human)): 95.2%
residual activity (BMX (human)): 101%
residual activity (PKN1 (human)): 104%
residual activity (NEK2 (human)): 106%
residual activity (BTK (human)): 102%
residual activity (INSR (human)): 93.2%
residual activity (CDK1 CCNB1 (human)): 81.1%
residual activity (NEK1 (human)): 96.3%
residual activity (MAPK11 (human)): 92%
residual activity (PKN2 (human)): 89.7%
residual activity (CDK4 CCND3 (human)): 98.5%
residual activity (CDK2 CCNE1 (human)): 94.6%
residual activity (CAMK1 (human)): 91.7%
residual activity (FGR (human)): 92%
residual activity (MAPK14 (human)): 98.5%
residual activity (KIT (human)): 102%
residual activity (LRRK2 (human)): 98%
residual activity (SRPK2 (human)): 94.9%
residual activity (PTK6 (human)): 101%
residual activity (MAP2K2 (human)): 94.1%
residual activity (CSNK2A1 (human)): 97.9%
residual activity (ZAP70 (human)): 94.9%
residual activity (MAP3K2 (human)): 98%
residual activity (STK10 (human)): 90.9%
residual activity (SRC (human)): 99%
residual activity (TBK1 (human)): 100%
residual activity (CDK9 CCNT1 (human)): 98.2%
residual activity (IRAK4 (human)): 99.9%
residual activity (CAMK1G (human)): 102%
residual activity (MAPK10 (human)): 86%
residual activity (PAK2 (human)): 97.2%
residual activity (STK11 (human)): 103%
residual activity (HIPK3 (human)): 99.1%
